Data from patent US10538516B2, “Oxadiazole derivative and pharmaceutical containing same” (National Center for Geriatrics and Gerontology, priority 2015, dated 2020).
Read-outs that look alike come from different tables or passages of the source.

Target: T1, GAβ-dependent amyloid fibril formation (Human Aβ1-40 + GM1-containing liposome) (Homo sapiens, UniProt P05067)
T1 construct: Human Aβ1-40 (cat. #4307-v, prepared by Peptide Institute); purchased Peptide Institute 4307-v
Test: Thioflavin T (ThT) assay of GAβ-dependent amyloid fibril formation (Aβ1-40 with GM1-containing liposome)
Assay type: biochemical
Method in brief: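 Human Aβ1-40 (75 μM stock) pre-incubated 10 min at room temperature with compound (75 or 15 μM solution), then GM1-containing cholesterol/sphingomyelin liposome added and incubated 37° C, 18 hours. Fibrils quantified by ThT fluorescence (ex 430/em 490 nm, pH 8.5 glycine buffer); inhibition as ratio to compound-free control.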

[1] = @25 μM, read-out: ThT Inhibitory activity (% inhibition)
[2] = inhibition rate against amyloid fibril formation, final concentration of the compound 25 μM, read-out: Inhibitory activity ABC evaluation

T1 sequence (P05067 672-711 limits assumed): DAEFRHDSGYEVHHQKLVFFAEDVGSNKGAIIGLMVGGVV

SMILES | inhibition at 25 µM [1] [%] | inhibition at 25 µM [2] [%] | inhibition at 25 µM (read-out: Inhibitory activity ABC evaluation) [%]
CC(=O)c1ccc(-c2noc([C@H](CO)NC(=O)c3ccccc3)n2)cc1 [Compound 153, N-[(1S)-1-[3-(4-acetylphenyl)-1,2,4-oxadiazol-5-yl]-2-hydroxyethyl] benzamide] | 76 | 40 to 80 | 
O=C(N[C@@H](CO)c1nc(-c2ccc(OCCO)cc2)no1)c1ccccc1 [Compound 156, N-[(1S)-2-hydroxy-1-{3-[4-(2-hydroxyethoxy)phenyl]-1,2,4-oxadiazol-5-yl}ethyl] benzamide] | 74 | 40 to 80 | 
O=C(N[C@@H](CO)c1nc(-c2ccc(C(F)(F)F)cc2)no1)c1ccc(F)nc1 [Compound 157, 6-fluoro-N-[(1S)-2-hydroxy-1-{3-[4-(trifluoromethyl)phenyl]-1,2,4-oxadiazol-5-yl}ethyl] pyridine-3-carboxamide] |  | > 80 | 
O=C(N[C@@H](CO)c1nc(-c2ccc(OCCN3CCOCC3)cc2)no1)c1ccccc1 [Compound 158, N-[(1S)-2-hydroxy-1-(3-{4-[2-(morpholin-4-yl)ethoxy]phenyl}-1,2,4-oxadiazol-5-yl)ethyl] benzamide] |  | 40 to 80 | 
CCN(C)C(=O)Oc1ccc(-c2noc([C@H](CO)NC(=O)c3ccccc3)n2)cc1 [Compound 159] |  |  | < 40
O=C(N[C@@H](CO)c1nc(-c2ccc(CF)cc2)no1)c1ccc(F)cc1 [Compound 161, 4-fluoro-N-[(1S)-1-{3-[4-(fluoromethyl)phenyl]-1,2,4-oxadiazol-5-yl}-2-hydroxyethyl] benzamide] |  | 40 to 80 | 
O=C(N[C@@H](CO)c1nc(-c2ccc(CF)cc2)no1)c1ccccc1 [Compound 162, N-[(1S)-1-{3-[4-(fluoromethyl)phenyl]-1,2,4-oxadiazol-5-yl}-2-hydroxyethyl] benzamide] |  | 40 to 80 | 
O=C(N[C@@H](CO)c1nc(-c2ccc(Br)cc2)no1)c1ccc(F)cc1 [Compound 163, N-[(1S)-1-[3-(4-bromophenyl)-1,2,4-oxadiazol-5-yl]-2-hydroxyethyl]-4-fluorobenzamide] |  | 40 to 80 | 
O=C(N[C@@H](CO)c1nc(-c2ccc(C(=O)C(F)(F)F)cc2)no1)c1ccc(F)cc1 [Compound 164, 4-fluoro-N-[(1S)-2-hydroxy-1-{3-[4-(2,2,2-trifluoroacetyl)phenyl]-1,2,4-oxadiazol-5-yl}ethyl] benzamide] |  | > 80 | 
O=C(N[C@@H](CO)c1nc(-c2ccc(C(=O)C(F)(F)F)cc2)no1)c1ccccc1 [Compound 165, N-[(1S)-2-hydroxy-1-{3-[4-(2,2,2-trifluoroacetyl)phenyl]-1,2,4-oxadiazol-5-yl}ethyl] benzamide] |  | > 80 | 
O=C(N[C@@H](CO)c1nc(-c2ccc(C(F)F)cc2)no1)c1ccc(F)cc1 [Compound 166, N-[(1S)-1-{3-[4-(difluoromethyl)phenyl]-1,2,4-oxadiazol-5-yl}-2-hydroxyethyl]-4-fluorobenzamide] |  | 40 to 80 | 
O=C(N[C@@H](CO)c1nc(-c2ccc(C(F)F)cc2)no1)c1ccc(Cl)cc1 [Compound 167] | 98 | > 80 | 
O=C(N[C@@H](CO)c1nc(-c2ccc(C(F)F)cc2)no1)c1ccccc1 [Compound 168, N-[(1S)-1-{3-[4-(difluoromethyl)phenyl]-1,2,4-oxadiazol-5-yl}-2-hydroxyethyl] benzamide] |  | > 80 | 
CCOCCOc1ccc(C(=O)N[C@@H](CO)c2nc(-c3ccc(OC(F)(F)F)cc3)no2)cc1 [Compound 169, 4-(2-ethoxyethoxy)-N-[(1S)-2-hydroxy-1-{3-[4-(trifluoromethoxy)phenyl]-1,2,4-oxadiazol-5-yl}ethyl] benzamide] |  | 40 to 80 | 
CCOCCOc1ccc(C(=O)N[C@@H](CO)c2nc(-c3ccc(C(F)(F)F)cc3)no2)cc1 [Compound 170] |  | 40 to 80 | 
CCN(CC)CCOc1ccc(C(=O)N[C@@H](CO)c2nc(-c3ccc(OC(F)(F)F)cc3)no2)cc1 [Compound 171, 4-[2-(diethylamino)ethoxy]-N-[(1S)-2-hydroxy-1-{3-[4-(trifluoromethoxy)phenyl]-1,2,4-oxadiazol-5-yl}ethyl] benzamide] |  | < 40 | 
O=C(N[C@@H](CO)c1nc(-c2ccc(F)cc2)no1)c1ccc(F)cc1 [Compound 172, 4-fluoro-N-[(1S)-1-[3-(4-fluorophenyl)-1,2,4-oxadiazol-5-yl]-2-hydroxyethyl] benzamide] | 91 | > 80 | 
O=C(N[C@@H](CO)c1nc(-c2cnc3ccccc3c2)no1)c1ccc(F)cc1 [Compound 173, 4-fluoro-N-[(1S)-2-hydroxy-1-[3-(quinolin-3-yl)-1,2,4-oxadiazol-5-yl]ethyl] benzamide] |  | < 40 | 
O=C(Nc1nc(-c2ccc(C(F)(F)F)cc2)no1)c1ccccc1 [Compound 174, N-{3-[4-(trifluoromethyl)phenyl]-1,2,4-oxadiazol-5-yl} benzamide] |  | < 40 | 
O=C(N[C@@H](CO)c1nc(-c2ccc3[nH]ccc3c2)no1)c1ccc(F)cc1 [Compound 175, 4-fluoro-N-[(1S)-2-hydroxy-1-[3-(1H-indol-5-yl)-1,2,4-oxadiazol-5-yl]ethyl] benzamide] |  | > 80 | 
O=C(N[C@@H](CO)c1nc(-c2cccc(C(F)(F)F)c2)no1)c1ccc(F)cc1 [Compound 176, 4-fluoro-N-[(1S)-2-hydroxy-1-{3-[3-(trifluoromethyl)phenyl]-1,2,4-oxadiazol-5-yl}ethyl] benzamide] |  | > 80 | 
O=C(N[C@@H](CO)c1nc(-c2cccc(C(F)(F)F)c2)no1)c1ccccc1 [Compound 177, N-[(1S)-2-hydroxy-1-{3-[3-(trifluoromethyl)phenyl]-1,2,4-oxadiazol-5-yl}ethyl] benzamide] |  | > 80 | 

More lines, main results first:

inhibition at 25 µM [1] [%] | inhibition at 25 µM [2] [%] | SMILES | inhibition at 25 µM (read-out: Inhibitory activity ABC evaluation) [%]
61 | 40 to 80 | O=C(N[C@@H](CO)c1nc(-c2cccs2)no1)c1ccc(F)cc1 [Compound 178, 4-fluoro-N-[(1S)-2-hydroxy-1-[3-(thiophen-2-yl)-1,2,4-oxadiazol-5-yl]ethyl]benzamide] | 
 | 40 to 80 | O=C(N[C@@H](CO)c1nc(-c2ccc(-n3cccn3)cc2)no1)c1ccc(F)cc1 [Compound 179, 4-fluoro-N-[(1S)-2-hydroxy-1-{3-[4-(1H-pyrazol-1-yl)phenyl]-1,2,4-oxadiazol-5-yl}ethyl]benzamide] | 
 | < 40 | O=C(N[C@@H](CO)c1nc(-c2ccc(-n3cccn3)cc2)no1)c1ccccc1 [Compound 180] | 
73 | 40 to 80 | O=C(N[C@@H](CO)c1nc(-c2ccccc2C(F)(F)F)no1)c1ccc(F)cc1 [Compound 181, 4-fluoro-N-[(1S)-2-hydroxy-1-{3-[2-(trifluoromethyl)phenyl]-1,2,4-oxadiazol-5-yl}ethyl]benzamide] | 
64 | 40 to 80 | O=C(NC(CO)c1nc(-c2ccc(C(F)(F)F)cc2)no1)c1cc2ccccc2[nH]1 (stereo not drawn) [Compound 182, N-(2-hydroxy-1-{3-[4-(trifluoromethyl)phenyl]-1,2,4-oxadiazol-5-yl}ethyl)-1H-indole-2-carboxamide] | 
 | > 80 | O=C(NC(CO)c1nc(-c2ccc(C(F)(F)F)cc2)no1)c1ccc2[nH]ccc2c1 (stereo not drawn) [Compound 183, N-(2-hydroxy-1-{3-[4-(trifluoromethyl)phenyl]-1,2,4-oxadiazol-5-yl}ethyl)-1H-indole-5-carboxamide] | 
 | 40 to 80 | O=C(NC(CO)c1nc(-c2ccc(C(F)(F)F)cc2)no1)c1cccc2cc[nH]c12 (stereo not drawn) [Compound 184, N-(2-hydroxy-1-{3-[4-(trifluoromethyl)phenyl]-1,2,4-oxadiazol-5-yl}ethyl)-1H-indole-7-carboxamide] | 
 | 40 to 80 | O=C(Cc1c[nH]c2ccccc12)NC(CO)c1nc(-c2ccc(C(F)(F)F)cc2)no1 (stereo not drawn) [Compound 185, N-(2-hydroxy-1-{3-[4-(trifluoromethyl)phenyl]-1,2,4-oxadiazol-5-yl}ethyl)-2-(1H-indol-3-yl)acetamide] | 
 | 40 to 80 | O=C(NC(CO)c1nc(-c2ccc(C(F)(F)F)cc2)no1)c1n[nH]c2ccccc12 (stereo not drawn) [Compound 186, N-(2-hydroxy-1-{3-[4-(trifluoromethyl)phenyl]-1,2,4-oxadiazol-5-yl}ethyl)-1H-indazole-3-carboxamide] | 
 | 40 to 80 | O=C(Cc1ccc(F)cc1)NC(CO)c1nc(-c2ccc(C(F)(F)F)cc2)no1 (stereo not drawn) [Compound 187, 2-(4-fluorophenyl)-N-(2-hydroxy-1-{3-[4-(trifluoromethyl)phenyl]-1,2,4-oxadiazol-5-yl}ethyl)acetamide] | 
 | > 80 | O=C(NC(CO)c1nc(-c2ccc(C(F)(F)F)cc2)no1)c1ccc(C(F)(F)F)cc1 (stereo not drawn) [Compound 188, N-(2-hydroxy-1-{3-[4-(trifluoromethyl)phenyl]-1,2,4-oxadiazol-5-yl}ethyl)-4-(trifluoromethyl) benzamide] | 
 | 40 to 80 | O=C(N[C@@H](CO)c1nc(-c2ccccc2C(F)(F)F)no1)c1ccccc1 [Compound 189, N-[(1S)-2-hydroxy-1-{3-[2-(trifluoromethyl)phenyl]-1,2,4-oxadiazol-5-yl}ethyl]benzamide] | 
67 | 40 to 80 | O=C(N[C@@H](CO)c1nc(-c2ccc(C3(F)COC3)cc2)no1)c1ccc(F)cc1 [Compound 190, 4-fluoro-N-[(1S)-1-{3-[4-(3-fluorooxetan-3-yl)phenyl]-1,2,4-oxadiazol-5-yl}-2-hydroxyethyl] benzamide] | 
73 | 40 to 80 | O=C(/C=C/c1cc(Cl)cc(Cl)c1)NC(CO)c1nc(-c2ccc(C(F)(F)F)cc2)no1 (stereo not drawn) [Compound 191, (2E)-3-(3,5-dichlorophenyl)-N-(2-hydroxy-1-{3-[4-(trifluoromethyl)phenyl]-1,2,4-oxadiazol-5-yl}ethyl)prop-2-enamide] | 
